Entries after “also recorded” stand apart in the source; their conditions may differ. Structures can show the parent of a compound that is named as a salt.
Legend:
[1] = Hygroscopicity / moisture sorption isotherm of solid state forms; assay type: physicochemical; conditions: for hygroscopicity: general statement on the solid state form
From the text: FIG. 6A is a moisture sorption isotherm corresponding to the Amorphous Freebase (via dehydration).
FIG. 6C is a moisture sorption isotherm corresponding to the Tartrate Hydrate.
FIG. 6D is a moisture sorption isotherm corresponding to the Freebase Anhydrate Form D.
In one embodiment, the Tartrate Hydrate has a moisture sorption isotherm profile showing a weight gain of about 1% to about 2% when relative humidity is increased from about 10% relative humidity to about 90% relative humidity at a temperature of 25° C.

[2] = Moisture sorption isotherm; assay type: physicochemical
Procedure: Moisture vapor isotherm data were collected with a DVS Advantage (Surface Measurement Systems Ltd, Alperton, United Kingdom). The sample powder (5 mg to 20 mg) was loaded on a tared pan of the DVS Advantage. The moisture sorption isotherm data were collected from 30-0-90-0-30% relative humidity in 10% relative humidity intervals. For each step, the dm/dt criteria was 0.001% over 5 minutes, a minimum dm/dt time of 30 minutes, and a maximum dm/dt of 120 minutes. Data was collected isothermally at 25° C. with a nitrogen flow rate of 200 cm^3/minute. The post DVS sample was kept at approximately 30% relative humidity before PXRD analysis.

[3] = Physical stability of solid state forms (dehydration, desolvation, conversion); assay type: physicochemical; conditions: for conversion upon drying: drying / ambient drying; for physical stability: general statement on the solid state form
Procedure: The Tartrate Hydrate dehydrated into Amorphous at low relative humidity and high temperature, e.g., <10% RH at 25° C. Shearing and compression potentially cause conversion to the amorphous tartrate, and therefore it is not suitable for compressing into tablet form. Additionally, the filter cake solidified during drying, resulting in the need for additional controls during drying.
In addition, Freebase Hydrate Form C can be grown into different particle sizes.
Freebase Anhydrate Form D can be manufactured only when the water content of the crystallization solvent is low, and will convert to Freebase Hydrate Form C in solutions at high water content. The manufacture of Freebase Anhydrate Form D thus requires strict control of water content. Freebase Anhydrate Form D is slow to crystallize, and difficult to manufacture in higher yield. […] Freebase Hydrate Form C will convert to Freebase Anhydrate Form D in a solution of ethyl acetate with low water content.
The resulting amorphous hydrochloride is hygroscopic. Yields obtained for each of the crystalline hydrochlorides generally have been in the 10% to 15% range.

[4] = Stability of isolated solid form at ambient conditions; assay type: physicochemical; conditions: after isolation
[5] = Chemical stability of solid state forms in closed vials at controlled temperature and relative humidity; assay type: physicochemical; conditions: general statement on the solid state form
Procedure: The Amorphous Freebase, however, is hygroscopic and can comprise as much as 12% by weight water at 25° C./90% relative humidity. Environmental controls potentially are required to ensure appropriate control of potency and water content during storage, dispensing, and handling of the Amorphous Freebase.
The Tartrate Hydrate, however, potentially will convert to an amorphous tartrate below 10% relative humidity, when heated, or when compressed or under shear.

Equilibrium solubility = assay type: physicochemical
Procedure: After equilibration, the mixtures were inspected to assure that the amount of excess solid was sufficient to permit re-characterization. […] The pH of aqueous suspensions was determined after equilibration. The solid phase was separated from the liquid phase by centrifugation at 3300 rpm at equilibration temperatures (i.e., 25° C. or 37° C.). The supernatant was then filtered (13 mm Acrodisc® syringe filter with 0.45μ GHP membrane, Pall® Life Sciences, Ann Arbor, Mich.) to discard the initial 2 mL (to saturate filter) and capture the last 1 mL for analysis. The filtrate was diluted as needed for quantification of the material studied by HPLC method (as detailed elsewhere herein). The physical form of the recovered solid was characterized by powder X-ray diffraction to examine whether or not phase change had occurred

[6] = Solid state accelerated stability study; assay type: physicochemical; conditions: for chemical stability: solid state accelerated stability study
Procedure: Samples (approximately 1 mg to 2 mg) of the solid state form were weighed into glass vials and tested as described below.

[7] = Pharmacokinetic interaction of Compound 1 and methotrexate (dose-normalized AUC); assay type: in vivo, human; conditions: FIG. 35B
[8] = Study 2-Part 2: methotrexate PK alone or with Compound 1 in subjects with RA; assay type: in vivo; conditions: human; for CL renal: urine and plasma
Procedure: Subjects received study drug for 26 consecutive days (Study Days 3 through 28) and a single morning dose of study drug on Study Day 29. […] Subjects were confined to the study site for a total of 10 days—from Day 1 to Day 4 and from Day 27 to Day 31.
Samples quantified below the LLOQ were reported as zero.
Renal clearance (CLr) was calculated as Au,0-12/AUC0-12 at steady state.

isolated Treg cells = isolated Treg cells and rheumatoid arthritis synovial fluid; cited from earlier work

CC[C@@H]1CN(C(=O)NCC(F)(F)F)C[C@@H]1c1cnc2cnc3[nH]ccc3n12 [Freebase Anhydrate Form D, (3S,4R)-3-ethyl-4-(3H-imidazo[1,2-a]pyrrolo[2,3-e]pyrazin-8-yl)-N-(2,2,2-trifluoroethyl)pyrrolidine-1-carboxamide]
water uptake (reversibly hygroscopic) ([1]; 90% RH at 25° C.): up to 1.8% | hygroscopicity [1]: reversibly hygroscopic | Moisture sorption (reversibly sorbs up to) ([2]; 90% relative humidity at 25° C.): up to 1.8%

CC[C@@H]1CN(C(=O)NCC(F)(F)F)C[C@@H]1c1cnc2cnc3[nH]ccc3n12 [Freebase Hydrate Form B, (3S,4R)-3-ethyl-4-(3H-imidazo[1,2-a]pyrrolo[2,3-e]pyrazin-8-yl)-N-(2,2,2-trifluoroethyl)pyrrolidine-1-carboxamide]
conversion upon drying [3]: convert to the Amorphous Freebase upon drying | physical stability [3]: not physically stable | Stability at ambient conditions [4]: not stable after isolation at ambient conditions and readily dehydrated to the Amorphous Freebase; also recorded: not stable at ambient conditions and readily dehydrates to the Amorphous Freebase

CC[C@@H]1CN(C(=O)NCC(F)(F)F)C[C@@H]1c1cnc2cnc3[nH]ccc3n12 [Freebase Hydrate Form C, (3S,4R)-3-ethyl-4-(3H-imidazo[1,2-a]pyrrolo[2,3-e]pyrazin-8-yl)-N-(2,2,2-trifluoroethyl)pyrrolidine-1-carboxamide]
chemical stability [5]: excellent chemical stability; also recorded: good chemical stability | hygroscopicity [1]: low hygroscopicity | temperature up to which no dehydration occurs ([3]; drying): around 110 °C | physical stability [3]: excellent and good | stability under mechanical processing ([3]; milling, compression): stable under mechanical processing | Solubility (Equilibrium solubility; FasSIF (pH 6.5 at 37° C.)): 0.22 mg/mL | Solubility (Equilibrium solubility; pH 1 at 25° C.): 55.3 mg/mL | Growth of degradation products ([6]; 80/75 10 days, 50/75 6 weeks, 40/75 and 30/65 24 weeks, 25/60 12 months (Temp ° C./% RH)): no growth of degradation products | chemical stability [6]: acceptable | Change in attributes evaluated (description, crystal form, assay, impurities and water content) ([6]; storage conditions of the accelerated stability study): No material change | hygroscopicity ([2]; moisture sorption isotherm analysis, 25° C.): not hygroscopic

CC[C@@H]1CN(C(=O)NCC(F)(F)F)C[C@@H]1c1cnc2cnc3[nH]ccc3n12 [Freebase Solvate Form A, (3S,4R)-3-ethyl-4-(3H-imidazo[1,2-a]pyrrolo[2,3-e]pyrazin-8-yl)-N-(2,2,2-trifluoroethyl)pyrrolidine-1-carboxamide]
conversion upon drying [3]: convert to the Amorphous Freebase upon drying | physical stability [3]: not physically stable | Stability at ambient conditions [4]: not stable after isolation at ambient conditions and readily dehydrated to the Amorphous Freebase

CC[C@@H]1CN(C(=O)NCC(F)(F)F)C[C@@H]1c1cnc2cnc3[nH]ccc3n12 [Hydrochloride Solvate Form AA, (3S,4R)-3-ethyl-4-(3H-imidazo[1,2-a]pyrrolo[2,3-e]pyrazin-8-yl)-N-(2,2,2-trifluoroethyl)pyrrolidine-1-carboxamide]
conversion upon drying [3]: convert to an amorphous hydrochloride upon ambient drying

CC[C@@H]1CN(C(=O)NCC(F)(F)F)C[C@@H]1c1cnc2cnc3[nH]ccc3n12 [Hydrochloride Solvate Form BB, (3S,4R)-3-ethyl-4-(3H-imidazo[1,2-a]pyrrolo[2,3-e]pyrazin-8-yl)-N-(2,2,2-trifluoroethyl)pyrrolidine-1-carboxamide]
conversion upon drying [3]: convert to an amorphous hydrochloride upon ambient drying

CC[C@@H]1CN(C(=O)NCC(F)(F)F)C[C@@H]1c1cnc2cnc3[nH]ccc3n12 [Hydrochloride Solvate Form CC, (3S,4R)-3-ethyl-4-(3H-imidazo[1,2-a]pyrrolo[2,3-e]pyrazin-8-yl)-N-(2,2,2-trifluoroethyl)pyrrolidine-1-carboxamide]
conversion upon drying [3]: convert to an amorphous hydrochloride upon ambient drying

CC[C@@H]1CN(C(=O)NCC(F)(F)F)C[C@@H]1c1cnc2cnc3[nH]ccc3n12 [L-Maleate Form AAA, (3S,4R)-3-ethyl-4-(3H-imidazo[1,2-a]pyrrolo[2,3-e]pyrazin-8-yl)-N-(2,2,2-trifluoroethyl)pyrrolidine-1-carboxamide]
chemical stability [5]: less chemically stable

CC[C@@H]1CN(C(=O)NCC(F)(F)F)C[C@@H]1c1cnc2cnc3[nH]ccc3n12 [L-Maleate Form BBB, (3S,4R)-3-ethyl-4-(3H-imidazo[1,2-a]pyrrolo[2,3-e]pyrazin-8-yl)-N-(2,2,2-trifluoroethyl)pyrrolidine-1-carboxamide]
chemical stability [5]: less chemically stable | Degradation on storage ([6]; 50° C./75% relative humidity (open and closed glass vials)): degraded to products that were not observed for the Freebase Hydrate Form C or the Tartrate Hydrate | chemical stability ([6]; listed as L-maleate salt): prone to chemical degradation

CCC1CN(C(=O)NCC(F)(F)F)CC1c1cnc2cnc3[nH]ccc3n12.Cl (stereo not drawn) [amorphous hydrochloride]
hygroscopicity [1]: hygroscopic

CN(Cc1cnc2nc(N)nc(N)c2n1)c1ccc(C(=O)N[C@@H](CCC(=O)O)C(=O)O)cc1 [methotrexate]
effect of concomitant Compound 1 administration on methotrexate dose-normalized AUC [7]: lack of effect | Tmax ([8]; plasma, 6 mg, Compound 1 6 mg BID Group, Day 1 (alone)): 2.5 h | half-life ([8]; plasma, 6 mg, Compound 1 6 mg BID Group, Day 29 (with Compound 1), harmonic mean ± pseudo-SD, read-out: t1/2 (terminal elimination half-life) (converted)): 4.7 ± 1.3 h | Tmax ([8]; plasma, 12 mg, Compound 1 12 mg BID Group, Day 29 (with Compound 1)): 2.5 h | Tmax ([8]; plasma, 24 mg, Compound 1 24 mg BID Group, Day 1 (alone)): 3 h | Tmax ([8]; plasma, 24 mg, Compound 1 24 mg BID Group, Day 29 (with Compound 1)): 2.5 h | CL renal ([8]; 6 mg, Compound 1 6 mg BID Group, Day 1 (alone)): 110 mL/min | CL renal ([8]; 6 mg, Compound 1 6 mg BID Group, Day 29 (with Compound 1)): 90.5 mL/min | CL renal ([8]; 12 mg, Compound 1 12 mg BID Group, Day 1 (alone)): 102 mL/min | CL renal ([8]; 12 mg, Compound 1 12 mg BID Group, Day 29 (with Compound 1)): 79.7 mL/min | CL renal ([8]; 24 mg, Compound 1 24 mg BID Group, Day 1 (alone)): 124 mL/min | CL renal ([8]; 24 mg, Compound 1 24 mg BID Group, Day 29 (with Compound 1)): 107 mL/min | CL renal ([8]; Placebo group, Day 1): 72 mL/min | CL renal ([8]; Placebo group, Day 29): 96.7 mL/min

B1: BT-061: humanized agonistic monoclonal antibody that binds to a unique epitope of human CD4 (antibody, chains of the INN, looked up, V domains shown)
VH: EEQLVESGGGLVKPGGSLRLSCAASGFSFSDCRMYWLRQAPGKGLEWIGVISVKSENYGANYAESVRGRFTISRDDSKNTVYLQMNSLKTEDTAVYYCSASYYRYDVGAWFAYWGQGTLVTVSS
VL: DIVMTQSPDSLAVSLGERATINCRASKSVSTSGYSYIYWYQQKPGQPPKLLIYLASILESGVPDRFSGSGSGTDFTLTISSLQAEDVAVYYCQHSRELPWTFGQGTKVEIK
CD4+ and CD8+ T effector cell proliferation (isolated Treg cells): suppression | expression of pro-inflammatory cytokines (isolated Treg cells): reduction | production of the anti-inflammatory cytokine TGFβ (isolated Treg cells): increase
